Test results reported in patent US10426755B2, “Methods for inhibiting cancer cells” (Chang Gung Memorial Hospital, Chiayi, priority 2015, dated 2019).
“Also recorded” adds a separate entry of the source.

Assays:
Format in all cases: cell-based
[1] = test system: ARK1 endometrial cancer cells; assay: XTT proliferation assay, ARK1; conditions: 5, 10 and 20 μM DT, 1-2 days, FIG. 4
Method: (§1) The prostate cancer cells were plated at a density of 10^3 or 3×10^3 per well, in a 96-well plate, in a medium containing 10% Fetal bovine serum (FBS) (Gibco®, commercially available from Life Technologies, USA). Once the prostate cancer cells were attached to the culture dish, the 10% FBS medium was replaced with a second 10% FBS medium and each of the prostate cancer cell line was treated with 1, 5, and 10 μM of DT respectively for 1-2 days. The absorbance was measured using XTT assay kit (commercially available from Roche, Switzerland) at 492 nm using an ELISA reader (Bio-Rad Laboratories, USA).
(§2) An in vitro evaluation of the effect of DT on endometrial cancer cells was performed. The endometrial cancer cell lines, ARK1 and ARK2, were provided by Dr. T H Wang at Chang Gung Meorial Hospital, Linkou, Taiwan)
(§3) The endometrial cancer cells were cultured and plated according to the steps in Example 1 and each of the endometrial cancer cell line was treated with 0 (control), 5, 10 and 20 μM of DT, respectively for 1-2 days. The absorbance was measured using XTT assay kit at 492 nm using an ELISA reader.

[2] = test system: ARK2 endometrial cancer cells; assay: XTT proliferation assay, ARK2; conditions: 5, 10 and 20 μM DT, 1-2 days, FIG. 4
Method: as §1, §2, §3

[3] = test system: chemotherapy-resistant colorectal cancer cells (HCT116); assay: XTT proliferation assay, colorectal cancer cells; conditions: 1, 5 and 10 μM DT, 1-3 days, FIG. 5
Method: as §1
An in vitro evaluation of the effect of DT on the chemotherapy-resistant colorectal cancer cells was performed. The chemotherapy-resistant colorectal cancer cells (HCT116) were obtained from Dr. K D Lee at Chang Gung Memorial Hospital, Chiayi, Taiwan. The colorectal cancer cells were cultured and plated according to the steps in Example 1 and treated with 0 (control), 1, 5 and 10 μM of DT, respectively for 1-3 days. The absorbance was measured using XTT assay kit at 492 nm using an ELISA reader.

[4] = test system: γ-H2AX, phosphorylated-ATM, phosphorylated-p53, PUMA, BAX, caspase-3, caspase-9 and PARP in LNCaP and DU145 prostate cancer cells; assay: Western blot of cell damage and cell death proteins, prostate cancer cells; conditions: various concentrations of DT, 6 to 24 hours, vs control vehicle; dose and time dependent; FIG. 9 (a)-(g)
Method: An in vitro evaluation on the damage effect of DT on cancer cells was performed, using prostate cancer cells (metastatic LNCaP and metastatic DU145, hormone therapy resistant and metastatic PC3 and 22RV1) and lung cancer cells (A549 and chemotherapy-resistant/metastatic H460).
Cancer cells were treated with a control vehicle, dihydrotestosterone (DHT), and various concentrations of DT between 6 to 24 hours. Cellular extracts of treated cancer cells were analyzed using Western Blot.

[5] = test system: skp2 and downstream genes in MCF7-tamoxifen resistant breast cancer cells; assay: skp2 and downstream gene mRNA expression, tamoxifen resistant breast cancer cells; conditions: various concentrations of DT vs DMSO, FIG. 10 (h), (j)
Method: It has been reported that skp2 plays an important role in the metastasis of cancer cells. An in vitro evaluation of the effect of DT on prostate cancer cell metastasis was performed, by measuring the mRNA expression of skp2 in the following prostate cancer cell lines: meatstatic DU145 cells (Panels i-j of FIG. 9), hormone therapy resistant and metastatic PC3 cells (Panel h of FIG. 9), and 22RV1 cells (Panels k-l of FIG. 9), A549 lung cancer cells (Panels (c)-(e) of FIG. 10), chemotherapy-resistant/metastatic H460 lung cancer cells (Panels (d) and (f) of FIG. 10), HCT116 colon cancer cells (Panels (g) and (i) of FIG. 10) and MCF7-tamoxifen resistant breast cancer cells (Panels (h) and (j) of FIG. 10) […].
The cancer cells were treated with DMSO and various concentrations of DT.

[6] = test system: prostate cancer cells (metastatic DU145, PC3, 22RV1); assay: Cell invasion assay (transwell, Matrigel), prostate cancer cells; conditions: 5 or 10 μM DT, 3 days, vs control vehicle; FIG. 12 (a), (c), (e)
Method: (§4) An in vitro evaluation of the effect of DT on lung cancer cells (A549 and chemotherapy resistant/metastatic H460), prostate cancer cells (metastatic DU145) and colorectal cancer cells (chemotherapy resistant HCT116) invasion and migration was performed, using cell invasion assay and cell migration assay.
(§5) Cell Invasion Assay: cells of interest were treated with a control vehicle, 5 or 10 μM of DT and incubated for 3 days. 1×10^5 cells were placed into the upper chamber of transwell plates (8 μm) with membranes pre-coated with 20% Matrigel and the bottom chamber contained 600 μL media supplemented with 10% fetal bovine serum (FBS). The cells migrated to the bottom of the chamber were fixed, stained and counted.

[7] = test system: prostate cancer cells (metastatic DU145, PC3, 22RV1); assay: Cell migration (wound-healing) assay, prostate cancer cells; conditions: DT vs control vehicle, 24 h, dose dependent; FIG. 12 (b), (d), (f)
Method: as §4
(§6) Cell Migration Assay: In vitro wound-healing assay was used to assess cell motility in two dimensions. Cancer cells were plated overnight to achieve a subconfluent cell layer in 24-well plates. A scratch was made on the cell layer with a micropipette tip, and cultures were washed twice with serum-free medium to remove floating cells. Cancer cells were incubated in a culture medium containing DT or the control vehicle. Wound healing was visualized by comparing photographs taken at the time of adding the DT/control vehicle and 24 h later. Three experiments were done in quadruplicates.

[8] = test system: colorectal cancer cells (chemotherapy resistant HCT116); assay: Cell invasion assay (transwell, Matrigel), colorectal cancer cells; conditions: 5 or 10 μM DT, 3 days, vs control vehicle; FIG. 13 (a)
Method: as §4, §5

[9] = test system: colorectal cancer cells (chemotherapy resistant HCT116); assay: Cell migration (wound-healing) assay, colorectal cancer cells; conditions: DT vs control vehicle, 24 h, dose dependent; FIG. 13 (b)
Method: as §4, §6

[10] = test system: CCL2 in RAW 264.7 cells/DU145 co-culture; assay: CCL2 ELISA, RAW 264.7/DU145 co-culture; conditions: DT-treated macrophage/DU145 co-culture medium; 5 or 10 μM DT, 24 hours; FIG. 15 (c)
Method: As illustrated in Example 10, the production of CCL2 was inhibited by DT in both prostate cancer cells and macrophage, the effect of DT on monocyte/cancer cell co-culture and macrophage/cancer cell co-culture was examined using the invasion assay described in Example 9. • (a) THP1 monocytes, Raw264.7 macrophage, monocyte/prostate cancer co-culture and macrophage/prostate cancer co-culture were treated with a vehicle (DMSO), 5 or 10 μM DT for 24 hours, the cultured medium was collected and placed into the lower chamber of a transwell plate. • (b) Prostate cancer cells (PC3, DU145 and 22RV1) were placed in the cell invasion assay). The level of CCL2 in the invasion assay was measured by ELIZA method.

Compound: Cc1cccc2c3c(ccc12)C(=O)C1=C(OCC1C)C3=O (stereo not drawn) [DT, dihydroisotanshinone I]
- inhibition of ARK1 endometrial cancer cells [1]: effective in inhibiting ARK1 and ARK2 endometrial cancer cells
- inhibition of ARK2 endometrial cancer cells [2]: effective in inhibiting ARK1 and ARK2 endometrial cancer cells
- inhibition of chemotherapy-resistant colorectal cancer cells [3]: effective in inhibiting chemotherapy-resistant colorectal cancer cells in a dose dependent manner
- DNA damage response proteins (γ-H2AX and phosphorylated-ATM), prostate cancer cells [4]: increased
- cell cycle regulatory protein (phosphorylated-p53), prostate cancer cells [4]: increased
- cell program death proteins (PUMA, BAX, caspase-3, caspase-9 and PARP), prostate cancer cells [4]: increased
- mRNA expression of skp2 and its downstream genes, target therapy resistant breast cancer [5]: effectively inhibit mRNA expression of skp2 and its downstream genes; also recorded: reduces skps and its downstream genes, MMP2, MMP9 and E-cadherin
- prostate cancer cell motility (invasion assay) [6]: reduced the motility and migration of prostate cancer cells
- prostate cancer cell migration into the wounded area [7]: reduced the motility and migration of prostate cancer cells; also recorded: reduced prostate cancer cell migration into the wounded area
- colorectal cancer cell motility (invasion assay) [8]: reduced the motility of chemotherapy resistant colorectal cancer cells; also recorded: reduced the motility of colon cancer cells
- colorectal cancer cell migration into the wounded area [9]: reduced chemotherapy resistant colorectal cancer cell migration; also recorded: reduced colon cancer cell migration into the wounded area
- concentration of CCL2 [10]: significantly reduced
